These results are taken from US12577469B2, “Compound, composition, cured product, optically anisotropic body, optical element, and light guide element” (FUJIFILM Corporation, priority 2021, dated 2026).

Data set [1] in a line: Evaluation of liquid crystallinity of compound (hot stage, polarization microscope). Type of data set: physicochemical. On the set-up: key: A case of having liquid crystallinity was evaluated as A; a case of having no liquid crystallinity was evaluated as B. The following applies: compound alone, heated on hot stage. As for the experimental part:
Each compound was heated on a hot stage and observed with a polarization microscope, and the phase transition temperature was measured to evaluate the presence or absence of liquid crystallinity. A case of having liquid crystallinity was evaluated as A, and a case of having no liquid crystallinity was evaluated as B. The results are shown in the column of “Liquid crystallinity” of “Compound 2” in Table 1.

Data set [2] can be described thus: Evaluation of solubility in cyclopentanone (precipitation concentration). Type of data set: physicochemical. The following applies: precipitation concentration in cyclopentanone at room temperature (25° C.).

Regarding `CC(=O)OCCc1ccc(C#Cc2ccc(OCc3ccc(C#Cc4ccc(COc5ccc(C#Cc6ccc(CCOC(C)=O)cc6)cc5C)cc4)cc3)c(C)c2)cc1` [Compound B-1], in data set [1], the “Compound 2 Liquid crystallinity” value is given as “A”. The “Compound 2 Solubility” value in data set [2] is “B (the solubility in a case where the precipitation concentration was 5% by mass or less was evaluated as B)”.
For `C=CC(=O)OCCc1ccc(C#Cc2ccc(OCc3ccc(C#Cc4ccc(COc5ccc(C#Cc6ccc(CCOC(=O)C=C)cc6)cc5C)cc4)cc3)c(C)c2)cc1` [Compound B-2], in that order: “A” and “B (the solubility in a case where the precipitation concentration was 5% by mass or less was evaluated as B)”.
For `C=CC(=O)OCCSc1ccc(C#Cc2ccc(OCc3ccc(C#Cc4ccc(COc5ccc(C#Cc6ccc(SCCOC(=O)C=C)cc6)cc5C)cc4)cc3)c(C)c2)cc1` [Compound B-3], in that order: “A” and “B (the solubility in a case where the precipitation concentration was 5% by mass or less was evaluated as B)”.
With `C=CC(=O)OCCSc1ccc(C#Cc2ccc(OCc3ccc(C#Cc4ccc(COc5ccc(C#Cc6ccc(SCCOC(=O)C=C)cc6)cc5C(=O)OC)cc4)cc3)c(C(=O)OC)c2)cc1` [Compound B-4], in data set [1], the “Compound 2 Liquid crystallinity” value is given as “A”. Besides, the “Compound 2 Solubility” value in data set [2] is recorded as “A (the solubility in a case where the precipitation concentration was more than 5% by mass was evaluated as A)”.
